As a reminder, the MIC is the smallest concentration in the dilution series that meets the test's criterion for growth inhibition. High values mean weaker potency, low ones greater potency.

Values after ≈ are worked out from the molar mass of the structure shown.

Format in all cases: functional
Assay [1] relates to Klebsiella aerogenes. In words: Antibacterial activity against Enterobacter aerogenes NCIM 2036 after 24 hr by agar diffusion assay.
Assay [2] has as its system Escherichia coli. In words: Antibacterial activity against Escherichia coli NCIM-2065 after 24 hr by agar diffusion assay. A general note: A growth-free zone around the sample is the usual read-out of agar diffusion tests.
Assay [3] deals with Proteus vulgaris. Put plainly: Antibacterial activity against Proteus vulgaris NCIM-2027 after 24 hr by agar diffusion assay.
The test system of assay [4] is Staphylococcus aureus. Put plainly: Antibacterial activity against Staphylococcus aureus NCIM-2079 after 24 hr by agar diffusion assay.
The subject of assay [5] is Bacillus subtilis. In words: Antibacterial activity against Bacillus subtilis NCIM-2063 after 24 hr by agar diffusion assay.
Assay [6] concerns Pseudomonas aeruginosa. Put plainly: Antibacterial activity against Pseudomonas aeruginosa NCIM-2036 after 24 hr by agar diffusion assay.
In assay [7] the test system is Bacillus cereus. Put plainly: Antibacterial activity against Bacillus cereus NCIM-2155 after 24 hr by agar diffusion assay.
For assay [8], the system named is Alcaligenes faecalis. In words: Antibacterial activity against Alcaligenes faecalis NCIM-2262 after 24 hr by agar diffusion assay.
Assay [9] deals with Proteus vulgaris. Put plainly: Antibacterial activity against Proteus vulgaris NCIM-2027 after 24 hr by broth dilution method. The conditions noted are these: NCIM-2027, 24 h.
Assay [10] deals with Alcaligenes faecalis. Put plainly: Antibacterial activity against Alcaligenes faecalis NCIM-2262 after 24 hr by broth dilution method. The note with it: NCIM-2262, 24 h. On the technique in general: In broth dilution the organism is exposed to a series of concentrations in liquid medium.
Assay [11] relates to Staphylococcus aureus. Put plainly: Antibacterial activity against Staphylococcus aureus NCIM-2079 after 24 hr by broth dilution method. The conditions noted are these: NCIM-2079, 24 h.
Assay [12] concerns Klebsiella aerogenes. Put plainly: Antibacterial activity against Enterobacter aerogenes NCIM 2036 after 24 hr by broth dilution method. The note with it: NCIM-2036, 24 h.
Assay [13] has as its system Pseudomonas aeruginosa. In words: Antibacterial activity against Pseudomonas aeruginosa NCIM-2036 after 24 hr by broth dilution method. The note with it: NCIM-2036, 24 h.
For assay [14], the system named is Escherichia coli. Put plainly: Antibacterial activity against Escherichia coli NCIM-2065 after 24 hr by broth dilution method. The conditions noted are these: NCIM-2065, 24 h.
The test system of assay [15] is Bacillus subtilis. In words: Antibacterial activity against Bacillus subtilis NCIM-2063 after 24 hr by broth dilution method. The note with it: NCIM-2063, 24 h.
Assay [16] relates to Bacillus cereus. In words: Antibacterial activity against Bacillus cereus NCIM-2155 after 24 hr by broth dilution method. The conditions noted are these: NCIM-2155, 24 h.

For the compound `CN[C@@H]1[C@H](O[C@H]2[C@H](O[C@H]3[C@H](O)[C@@H](O)[C@H](N=C(N)N)[C@@H](O)[C@@H]3N=C(N)N)O[C@@H](C)[C@]2(O)C=O)O[C@@H](CO)[C@H](O)[C@H]1O` [STREPTOMYCIN], the “diameter of the inhibition zone (DIZ)” value in the assay with Klebsiella aerogenes [1] was 19.38 mm; with Escherichia coli [2] it was 18.42 mm; in the assay on Proteus vulgaris [3], 24.36 mm; in the assay with Staphylococcus aureus [4] it was 19.41 mm; with Bacillus subtilis [5], 22.33 mm; in the assay with Pseudomonas aeruginosa [6], 21.15 mm. Also, the “diameter of the inhibition zone (DIZ)” value is on record as 20.53 mm in the assay with Bacillus cereus [7] and 22.37 mm in the assay with Alcaligenes faecalis [8].
Turning to `CC1(C)CC[C@]2(C(=O)O)[C@H](O)[C@H](O)[C@]3(C)C(=CC[C@@H]4[C@@]5(C)CC[C@H](O)C(C)(C)[C@@H]5CC[C@]43C)[C@@H]2C1` [ENTAGENIC ACID], the “diameter of the inhibition zone (DIZ)” value in the assay with Klebsiella aerogenes [1] is recorded as 6.5 mm; in the assay on Escherichia coli [2], 13 mm; in the assay on Proteus vulgaris [3], 13.5 mm; in the assay with Staphylococcus aureus [4] it was 17.5 mm; in the assay with Bacillus subtilis [5] it was 18 mm; with Pseudomonas aeruginosa [6], 15 mm. Further, the “diameter of the inhibition zone (DIZ)” value in the assay with Bacillus cereus [7] is 22 mm; with Alcaligenes faecalis [8] it was 15 mm. The minimal inhibitory concentration (MIC) in the assay on Proteus vulgaris [9] stood at 250 µg/mL (≈ 512 µM); against Alcaligenes faecalis [10] it was 150 µg/mL (≈ 307 µM); in the assay with Staphylococcus aureus [11] it was 100 µg/mL (≈ 205 µM); in the assay with Klebsiella aerogenes [12], 300 µg/mL (≈ 614 µM); against Pseudomonas aeruginosa [13] it was 150 µg/mL (≈ 307 µM); with Escherichia coli [14] it was 250 µg/mL (≈ 512 µM). In addition, the MIC against Bacillus subtilis [15] and in the assay with Bacillus cereus [16] was 100 µg/mL (≈ 205 µM) each time.

The record behind these values is ChEMBL document CHEMBL3045735, “Antibacterial and molecular docking studies of entagenic acid, a bioactive principle from seed kernel of Entada pursaetha DC” (2012).
